Reference: patent US7682618B2 (priority 2001, dated 2010)

Key:
[1] = system: EBOV infection of Vero E6 cells; assay type: cell-based, Ebola virus
[2] = system: Ebola GP in lipid rafts of 293T cells; assay type: cell-based, human

Compound | EBOV infection, viral titer 48 hour post infection [1] | virus production after recovery from drug treatment [1] | general cytotoxic effect, trypan blue exclusion (Vero E6 cells) | association of Ebola GP with rafts (detergent insoluble fraction) [2]
CCCCC[C@@H](O)[C@H]1C(=O)O[C@H](C)[C@@H](O)/C=C/C=C/C=C/C=C/C=C(\C)[C@@H](O)C[C@H](O)C[C@H](O)C[C@H](O)C[C@H](O)C[C@H](O)C[C@@H]1O [filipin] | significant inhibition of EBOV infection | could produce large amounts of virus | viable | –
methyl-β-cyclodextrin | – | – | – | almost complete removal of Ebola GP from rafts
nystatin | – | – | viable | –
